From patent US20250134907A1, “FUSED DIAZEPINES AS AGONISTS OF THE INSULIN-LIKE 3 (INSL3) PEPTIDE RECEPTOR RXFP2 AND METHODS OF USE THEREOF” (The United States of America,as represented by the …, priority 2022, published 2025)
Where two headings read alike, the source gives them in different places.

What was measured:
[1] = biological target: T1, RXFP2 (Homo sapiens, UniProt Q8WXD0); experiment: HTRF cAMP assay in HEK-RXFP2 cells with INSL3 B dimer antagonist co-treatment; format: cell-based; settings: antagonist 10 μM-[…], IBMX 200 μM
T1 construct: expressed in transfected cells
Protocol: Previous publications have characterized the INSL3/RXFP2 binding model, showing that the B-chain of INSL3 binds with high affinity to the extracellular leucine-rich repeat (LRR) domain of RXFP2. To determine if the RXFP2 agonists interact with the receptor in a similar manner, an INSL3 antagonist (INSL3 B dimer) was used to co-treat HEK-RXFP2 cells with RXFP2 agonists or INSL3 and measure induction of cAMP using the HTRF assay. […] The HTRF cAMP assay was carried out in the presence of 200 μM IBMX to amplify the cAMP signal. For this assay, cells were seeded in 96-well flat-bottom opaque plates at 7,500 cells/well in 60 μL/well of serum-free DMEM medium and allowed to attach overnight at 37° C. and 5% CO2. The next morning, cells were treated with 2 μL of INSL3 B dimer antagonist (10 μM-0.21 nM) and 2 μL of 30 nM INSL3 or 4 μL of vehicle (serum-free DMEM+IBMX). Cells were also treated with 1 μL/well of 0.28 μM compound, 2 μM forskolin, or DMSO vehicle. Cells were incubated for 1 hour at 37° C., 5% CO2, after which kit cAMP-d2 and anti-cAMP antibody were added as previously described. Plates were incubated for 1 hour at room temperature, and then the signal was read on a CLARIOstar plate reader (BMG Labtech, Germany).

[2] = Pharmacokinetic study in female mice (plasma, liver, bone); format: in vivo, female C57/BL6 mice
Description: FIG. 24A depicts the plasma profile. FIG. 24B depicts the liver profile and FIG. 24C depicts the bone profiles. The actual concentration (ng/g) is the detected value (ng/mL) multiplied by 4. […] 40% HP-b-CD-75% PEG300. Three mice were used per time point. Results are expressed as the mean SEM.
2-hydroxypropyl-beta-cyclodextrin (HPBCD).
FIG. 24A depicts the plasma profile. FIG. 24B depicts the liver profile and FIG. 24C depicts the bone profiles. The actual concentration (ng/g) is the detected value (ng/mL) multiplied by 4. […] 40% HP-b-CD-75% PEG300. Three mice were used per time point. Results are expressed as the mean±SEM.

[3] = bone, PO 10 mg/kg, one administration
[4] = liver, PO 10 mg/kg, one administration
[5] = plasma, PO 10 mg/kg, one administration

T1 sequence (Q8WXD0 whole entry): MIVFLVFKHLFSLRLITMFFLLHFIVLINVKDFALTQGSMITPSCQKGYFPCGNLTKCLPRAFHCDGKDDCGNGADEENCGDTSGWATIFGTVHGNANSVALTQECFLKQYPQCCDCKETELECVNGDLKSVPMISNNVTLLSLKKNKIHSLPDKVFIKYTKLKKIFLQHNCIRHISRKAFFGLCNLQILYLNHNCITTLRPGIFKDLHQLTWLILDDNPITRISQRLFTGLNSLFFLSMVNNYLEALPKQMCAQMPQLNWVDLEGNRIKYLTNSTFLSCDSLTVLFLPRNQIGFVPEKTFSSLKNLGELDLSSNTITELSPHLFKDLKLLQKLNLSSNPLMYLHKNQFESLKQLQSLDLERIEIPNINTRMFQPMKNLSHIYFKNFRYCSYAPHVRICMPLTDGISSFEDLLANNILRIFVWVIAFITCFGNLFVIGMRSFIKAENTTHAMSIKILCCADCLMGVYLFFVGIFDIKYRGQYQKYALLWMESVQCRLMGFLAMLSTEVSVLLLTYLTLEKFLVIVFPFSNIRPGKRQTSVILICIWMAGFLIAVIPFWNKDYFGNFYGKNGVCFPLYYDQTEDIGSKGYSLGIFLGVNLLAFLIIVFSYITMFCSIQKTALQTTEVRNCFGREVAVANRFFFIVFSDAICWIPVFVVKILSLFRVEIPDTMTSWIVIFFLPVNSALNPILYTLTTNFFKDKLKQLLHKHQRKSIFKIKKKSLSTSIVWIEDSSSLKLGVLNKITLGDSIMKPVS

O=C1Nc2ccc(-c3cc(C(F)(F)F)cc(C(F)(F)F)c3)cc2C(=O)N2CCN(C(=O)COc3ccc(OC(F)(F)F)cc3I)C[C@@H]12 [Example 187, (S)-8-(3,5-bis(trifluoromethyl)phenyl)-2-(2-(2-iodo-4-(trifluoromethoxy)phenoxy)acetyl)-1,3,4,12a-tetrahydrobenzo[e]pyrazino[1,2-a][1,4]diazepine-6,12 (2H, 11H)-dione]
effect of INSL3 B dimer antagonist on cAMP response induced by the compound [1]: no effect
Maximum serum concentration ([2]; Table 10, IV 3 mg/kg): 3.25 µg/mL
AUCInf ([2]; bone, IV 3 mg/kg): 3687 ng·h/g
AUClast ([2]; bone, IV 3 mg/kg): 3650 ng·h/g
AUCInf [2, 3]: 2190 ng·h/g
AUClast [2, 3]: 1897 ng·h/g
AUCInf ([2]; bone, PO (QD*3) 10 mg/kg): 2573 ng·h/g
AUClast ([2]; bone, PO (QD*3) 10 mg/kg): 2539 ng·h/g
Cmax ([2]; female, C57/BL6, mouse, bone, iv, 3 mg/kg, IV 3 mg/kg): 1070 ng/g
Cmax ([2]; female, C57/BL6, mouse, bone, po, 10 mg/kg, PO 10 mg/kg, one administration): 174 ng/g
Cmax ([2]; female, C57/BL6, mouse, bone, po, 10 mg/kg, PO (QD*3) 10 mg/kg): 298 ng/g
Kp ([2]; female, C57/BL6, mouse, bone/plasma, iv, 3 mg/kg, IV 3 mg/kg, read-out: AUClast Ratio (Bone/Plasma)): 1.14
Kp ([2]; female, C57/BL6, mouse, bone/plasma, iv, 3 mg/kg, IV 3 mg/kg, read-out: Cmax Ratio (Bone/Plasma)): 0.419
Kp ([2]; female, C57/BL6, mouse, bone/plasma, po, 10 mg/kg, PO 10 mg/kg, one administration, read-out: AUClast Ratio (Bone/Plasma)): 0.725
Kp ([2]; female, C57/BL6, mouse, bone/plasma, po, 10 mg/kg, PO 10 mg/kg, one administration, read-out: Cmax Ratio (Bone/Plasma)): 0.475
Kp ([2]; female, C57/BL6, mouse, bone/plasma, po, 10 mg/kg, PO (QD*3) 10 mg/kg, read-out: AUClast Ratio (Bone/Plasma)): 0.779
Kp ([2]; female, C57/BL6, mouse, bone/plasma, po, 10 mg/kg, PO (QD*3) 10 mg/kg, read-out: Cmax Ratio (Bone/Plasma)): 0.766
Cmax ([2]; female, C57/BL6, mouse, liver, iv, 3 mg/kg, IV 3 mg/kg): 28000 ng/g
Cmax ([2]; female, C57/BL6, mouse, liver, po, 10 mg/kg, PO 10 mg/kg, one administration): 3210 ng/g
Cmax ([2]; female, C57/BL6, mouse, liver, po, 10 mg/kg, PO (QD*3) 10 mg/kg): 3570 ng/g
Kp ([2]; female, C57/BL6, mouse, liver/plasma, iv, 3 mg/kg, IV 3 mg/kg, read-out: AUClast Ratio (Liver/Plasma)): 8.3
Kp ([2]; female, C57/BL6, mouse, liver/plasma, iv, 3 mg/kg, IV 3 mg/kg, read-out: Cmax Ratio (Liver/Plasma)): 10.9
Kp ([2]; female, C57/BL6, mouse, liver/plasma, po, 10 mg/kg, PO 10 mg/kg, one administration, read-out: AUClast Ratio (Liver/Plasma)): 9.23
Kp ([2]; female, C57/BL6, mouse, liver/plasma, po, 10 mg/kg, PO 10 mg/kg, one administration, read-out: Cmax Ratio (Liver/Plasma)): 8.78
Kp ([2]; female, C57/BL6, mouse, liver/plasma, po, 10 mg/kg, PO (QD*3) 10 mg/kg, read-out: AUClast Ratio (Liver/Plasma)): 7.64
Kp ([2]; female, C57/BL6, mouse, liver/plasma, po, 10 mg/kg, PO (QD*3) 10 mg/kg, read-out: Cmax Ratio (Liver/Plasma)): 9.18
AUC(0-inf) ([2]; female, C57/BL6, mouse, plasma, iv, 3 mg/kg, Table 10, IV 3 mg/kg, read-out: Area under the curve-AUCinf): 3200 ng·h/mL
AUC(0-t) ([2]; female, C57/BL6, mouse, plasma, iv, 3 mg/kg, Table 10, IV 3 mg/kg, read-out: Area under the curve-AUClast): 3190 ng·h/mL
C0 ([2]; female, C57/BL6, mouse, plasma, iv, 3 mg/kg, Table 10, IV 3 mg/kg, read-out: Concentration-C0): 3590 ng/mL
half-life ([2]; female, C57/BL6, mouse, plasma, iv, 3 mg/kg, Table 10, IV 3 mg/kg, read-out: Half life-t1/2 (converted)): 6.56 h
AUC(0-inf) ([2]; female, C57/BL6, mouse, plasma, iv, 3 mg/kg, plasma, IV 3 mg/kg, read-out: AUCInf): 3200 ng·h/mL
AUC(0-t) ([2]; female, C57/BL6, mouse, plasma, iv, 3 mg/kg, plasma, IV 3 mg/kg, read-out: AUClast): 3190 ng·h/mL
C0 ([2]; female, C57/BL6, mouse, plasma, iv, 3 mg/kg, plasma, IV 3 mg/kg, read-out: C0): 3590 ng/mL
half-life ([2]; female, C57/BL6, mouse, plasma, iv, 3 mg/kg, plasma, IV 3 mg/kg, read-out: t1/2 (converted)): 6.56 h
AUC(0-inf) ([2]; female, C57/BL6, mouse, plasma, po, 10 mg/kg, Table 10, POA single 10 mg/kg, read-out: Area under the curve-AUCinf): 2650 ng·h/mL
AUC(0-t) ([2]; female, C57/BL6, mouse, plasma, po, 10 mg/kg, Table 10, POA single 10 mg/kg, read-out: Area under the curve-AUClast): 2620 ng·h/mL
half-life ([2]; female, C57/BL6, mouse, plasma, po, 10 mg/kg, Table 10, POA single 10 mg/kg, read-out: Half life-t1/2 (converted)): 3.89 h
AUC(0-inf) ([2]; female, C57/BL6, mouse, plasma, po, 10 mg/kg, Table 10, POB QD × 3, 10 mg/kg, read-out: Area under the curve-AUCinf): 3270 ng·h/mL
AUC(0-t) ([2]; female, C57/BL6, mouse, plasma, po, 10 mg/kg, Table 10, POB QD × 3, 10 mg/kg, read-out: Area under the curve-AUClast): 3260 ng·h/mL
half-life ([2]; female, C57/BL6, mouse, plasma, po, 10 mg/kg, Table 10, POB QD × 3, 10 mg/kg, read-out: Half life-t1/2 (converted)): 5.88 h
AUC(0-inf) ([2]; female, C57/BL6, mouse, plasma, po, 10 mg/kg, plasma, PO 10 mg/kg, one administration, read-out: AUCInf): 2650 ng·h/mL
AUC(0-t) ([2]; female, C57/BL6, mouse, plasma, po, 10 mg/kg, plasma, PO 10 mg/kg, one administration, read-out: AUClast): 2620 ng·h/mL
C0 ([2]; female, C57/BL6, mouse, plasma, po, 10 mg/kg, plasma, PO 10 mg/kg, one administration, read-out: C0): 366 ng/mL
half-life ([2]; female, C57/BL6, mouse, plasma, po, 10 mg/kg, plasma, PO 10 mg/kg, one administration, read-out: t1/2 (converted)): 3.89 h
AUC(0-inf) ([2]; female, C57/BL6, mouse, plasma, po, 10 mg/kg, plasma, PO (QD*3) 10 mg/kg, read-out: AUCInf): 3270 ng·h/mL
AUC(0-t) ([2]; female, C57/BL6, mouse, plasma, po, 10 mg/kg, plasma, PO (QD*3) 10 mg/kg, read-out: AUClast): 3260 ng·h/mL
C0 ([2]; female, C57/BL6, mouse, plasma, po, 10 mg/kg, plasma, PO (QD*3) 10 mg/kg, read-out: C0): 389 ng/mL
half-life ([2]; female, C57/BL6, mouse, plasma, po, 10 mg/kg, plasma, PO (QD*3) 10 mg/kg, read-out: t1/2 (converted)): 5.88 h
bioavailability ([2]; female, C57/BL6, mouse, plasma, po, Table 10, POA single 10 mg/kg, read-out: Bioavailability-F): 24.8%
MRT last ([2]; female, C57/BL6, mouse, plasma, Table 10, IV 3 mg/kg, read-out: Mean residence time-MRTlast): 3.47 h
clearance ([2]; female, C57/BL6, mouse, plasma, Table 10, IV 3 mg/kg, read-out: Total clearance after IV administration-CLobs): 15.6 mL/min/kg
Vd ([2]; female, C57/BL6, mouse, plasma, Table 10, IV 3 mg/kg, read-out: Volume of distribution in steady state-VSSobs): 3.38 L/kg
Tmax ([2]; female, C57/BL6, mouse, bone, IV 3 mg/kg): 0.083 h
Tmax ([2]; female, C57/BL6, mouse, bone, PO 10 mg/kg, one administration): 3 h
Tmax ([2]; female, C57/BL6, mouse, liver, IV 3 mg/kg): 0.083 h
Tmax ([2]; female, C57/BL6, mouse, liver, PO 10 mg/kg, one administration): 1 h
MRT ([2]; female, C57/BL6, mouse, plasma, IV 3 mg/kg): 3.47 h
Tmax ([2]; female, C57/BL6, mouse, plasma, PO 10 mg/kg, one administration): 1 h
AUCInf ([2]; liver, IV 3 mg/kg): 26524 ng·h/g
AUClast ([2]; liver, IV 3 mg/kg): 26492 ng·h/g
AUCInf [2, 4]: 24170 ng·h/g
AUClast [2, 4]: 24146 ng·h/g
AUCInf ([2]; liver, PO (QD*3) 10 mg/kg): 24965 ng·h/g
AUClast ([2]; liver, PO (QD*3) 10 mg/kg): 24927 ng·h/g
AUC_%Extrap ([2]; plasma, IV 3 mg/kg): 0.258%
Cl_obs ([2]; plasma, IV 3 mg/kg): 15.6 mL/min/kg
Vss_obs ([2]; plasma, IV 3 mg/kg): 3.38 L/kg
AUC_%Extrap [2, 5]: 1.20%
F [2, 5]: 24.8%
AUC_%Extrap ([2]; plasma, PO (QD*3) 10 mg/kg): 0.265%
